The numbers were not newly measured in US10300017B2, “Method and composition for treating cystitis” (Nanologix Research, Inc., priority 2012, dated 2019), which cites them from elsewhere.

Data set [1] has as its system interstitial cystitis. The following applies: 20 patients heparin 40,000 units, 20 patients 100 mg Elmiron, 80 mg lidocaine, 3 cc sodium bicarb.
The conditions of data set [2]: oral.

For heparin, the “response to therapy (symptom relief), comparison of the two intravesical solutions” value in data set [1] is recorded as “no significant difference between the two solutions”.
Consider pentosan polysulfate [Elmiron®], for which, under “administered orally”, the “fraction absorbed that reaches the circulation” value is 6%. Besides, under “oral dose”, the “fraction of the administered dose recovered as intact drug in urine (mean)” value was 0.14%. Besides, the “mean of an oral dose excreted in the urine” value (oral dose, mostly as desulfated and depolymerized metabolites) is 6%. For the same substance, the systemic side effects entry in data set [2] is “hair loss, GI intolerance, headache, rash, sleep disturbance, and vertigo”. In data set [1], the “response to therapy (symptom relief), comparison of the two intravesical solutions” value was “no significant difference between the two solutions”.
